Data reported in ChEMBL document CHEMBL1201862, “PubChem BioAssay data set” (2004).
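A five-concentration, 48-hour dose response in 96-well plates underlies each endpoint, interpolated linearly between surrounding concentrations. Here, GI50 denotes the concentration required for 50% inhibition of growth.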 Activity calls are given as the source filed them. Cut-off read from the data, not from the text of the source: active = GI50 up to about 1.1 µM and inactive = higher.

How the values were obtained:
Assay in all cases: DTP human tumour cell line panel, 48 h
EKVX = test system: EKVX
HCT-15 = test system: HCT-15
HOP-92 = test system: HOP-92
HT-29 = test system: HT-29
MCF7 = test system: MCF7
NCI-H23 = test system: NCI-H23
NCI/ADR-RES = test system: NCI/ADR-RES
OVCAR-5 = test system: OVCAR-5
RPMI-8226 = test system: RPMI-8226
SK-MEL-28 = test system: SK-MEL-28
SK-MEL-5 = test system: SK-MEL-5
SNB-19 = test system: SNB-19
SR = test system: SR
TK-10 = test system: TK-10
UACC-62 = test system: UACC-62
CAKI-1 = test system: CAKI-1
NCI-H460 = test system: NCI-H460
OVCAR-4 = test system: OVCAR-4
RXF 393 = test system: RXF 393

Compound | GI50 (EKVX) | GI50 (HCT-15) [µM] | GI50 (HOP-92) | GI50 (HT-29) | GI50 (MCF7) | GI50 (NCI-H23) | GI50 (NCI/ADR-RES) | GI50 (OVCAR-5) | GI50 (RPMI-8226) | GI50 (SK-MEL-28) | GI50 (SK-MEL-5) | GI50 (SNB-19) | GI50 (SR) | GI50 (TK-10) | GI50 (UACC-62) | GI50 (CAKI-1) | GI50 (NCI-H460) | GI50 (OVCAR-4) | GI50 (RXF 393)
CCSc1n/c(=C\c2ccco2)c2nncn12 | > 100 µM (inactive) | > 100 | 40.7 µM (inactive) | > 100 µM (inactive) | > 100 µM (inactive) | > 100 µM (inactive) | > 100 µM (inactive) | > 100 µM (inactive) | > 100 µM (inactive) | > 100 µM (inactive) | > 100 µM (inactive) | > 100 µM (inactive) | > 100 µM (inactive) | > 100 µM (inactive) | > 100 µM (inactive) |  |  |  | 
C(=N/c1ccccc1C1SCCCS1)/c1ccccc1 | > 100 µM (inactive) | > 100 | > 100 µM (inactive) | > 100 µM (inactive) | > 100 µM (inactive) | > 100 µM (inactive) | > 100 µM (inactive) | > 100 µM (inactive) | > 100 µM (inactive) | > 100 µM (inactive) | > 100 µM (inactive) | > 100 µM (inactive) |  | > 100 µM (inactive) | > 100 µM (inactive) | > 100 µM (inactive) | > 100 µM (inactive) | > 100 µM (inactive) | > 100 µM (inactive)
CN(C(=O)c1ccc2c(c1)sc1c(=O)n(C)c3ccccc3c12)c1ccccc1 | > 100 µM (inactive) | > 100 | > 100 µM (inactive) | > 100 µM (inactive) | > 100 µM (inactive) | > 100 µM (inactive) | > 100 µM (inactive) | > 100 µM (inactive) |  | > 100 µM (inactive) | > 100 µM (inactive) | > 100 µM (inactive) | > 100 µM (inactive) | > 100 µM (inactive) | > 100 µM (inactive) | > 100 µM (inactive) | > 100 µM (inactive) | > 100 µM (inactive) | > 100 µM (inactive)
C=CCC1(c2ccc(OC)cc2)C=CC(=O)CC1 (stereo unspecified) | > 100 µM (inactive) | 72.3 | 44.9 µM (inactive) | > 100 µM (inactive) | > 100 µM (inactive) | > 100 µM (inactive) | 33.2 µM (inactive) | > 100 µM (inactive) |  | > 100 µM (inactive) | > 100 µM (inactive) | > 100 µM (inactive) | 44.3 µM (inactive) | > 100 µM (inactive) | 68.7 µM (inactive) | > 100 µM (inactive) | > 100 µM (inactive) | > 100 µM (inactive) | 94 µM (inactive)
COC(=O)C1=C(C(=O)OC)C2OC1C1C2C2(C)C(C)=C(C)C1(C)[S+]2[O-] (stereo unspecified) | 11.5 µM (inactive) | 4.18 | 15.8 µM (inactive) | 6.47 µM (inactive) | 6.28 µM (inactive) | 6.93 µM (inactive) | 23.7 µM (inactive) | 15.5 µM (inactive) | 4.73 µM (inactive) | 19.1 µM (inactive) | 7.62 µM (inactive) | 30.3 µM (inactive) |  | 12.2 µM (inactive) | 8.99 µM (inactive) | 4.93 µM (inactive) | 15.9 µM (inactive) | 12.1 µM (inactive) | 3.37 µM (inactive)
CCC(=O)C(c1ccccc1)c1ccccn1 (stereo unspecified) | > 100 µM (inactive) | > 100 | > 100 µM (inactive) | > 100 µM (inactive) | > 100 µM (inactive) | > 100 µM (inactive) | > 100 µM (inactive) | > 100 µM (inactive) | > 100 µM (inactive) | > 100 µM (inactive) | > 100 µM (inactive) | > 100 µM (inactive) |  | > 100 µM (inactive) | > 100 µM (inactive) | > 100 µM (inactive) | > 100 µM (inactive) | > 100 µM (inactive) | > 100 µM (inactive)
CCCn1c(C23CC4CC(CC(C4)C2)C3)nc2ccc(Cl)cc2c1=O | 23.9 µM (inactive) | 45.6 | 42.8 µM (inactive) | 24.9 µM (inactive) | 23.7 µM (inactive) | 50.5 µM (inactive) | 21.9 µM (inactive) | 74.8 µM (inactive) | 28.7 µM (inactive) | 57.5 µM (inactive) | 41.3 µM (inactive) | 49 µM (inactive) |  | 48.2 µM (inactive) | 25.9 µM (inactive) | 30 µM (inactive) | 36.1 µM (inactive) | 42.2 µM (inactive) | 7.11 µM (inactive)
CCOC(=O)C1(C(=O)OCC)CCCN1C(=O)[C@H](CNC(=O)OC(C)(C)C)NC(=O)OCc1ccccc1 | > 100 µM (inactive) | > 100 |  | > 100 µM (inactive) | > 100 µM (inactive) | > 100 µM (inactive) | > 100 µM (inactive) | > 100 µM (inactive) | 31.3 µM (inactive) | > 100 µM (inactive) | > 100 µM (inactive) | > 100 µM (inactive) | 51.6 µM (inactive) | > 100 µM (inactive) |  | > 100 µM (inactive) | > 100 µM (inactive) | > 100 µM (inactive) | > 100 µM (inactive)
COCCN(CCOC)C(=O)COc1c2cc(C(C)(C)C)cc1Cc1cc(C(C)(C)C)cc(c1OCC(=O)N(CCOC)CCOC)Cc1cc(C(C)(C)C)cc(c1OCC(=O)N(CCOC)CCOC)Cc1cc(C(C)(C)C)cc(c1OCC(=O)N(CCOC)CCOC)Cc1cc(C(C)(C)C)cc(c1OCC(=O)N(CCOC)CCOC)C2 | 0.434 µM (active) | 2.81 |  | 0.908 µM (active) | 1.3 µM (inactive) | 1.19 µM (inactive) | 10.7 µM (inactive) | 5.55 µM (inactive) |  | 3.33 µM (inactive) | 1.32 µM (inactive) | 1.34 µM (inactive) | 0.352 µM (active) | 2.76 µM (inactive) | 1.18 µM (inactive) |  | 1.12 µM (inactive) | 0.467 µM (active) | 1.09 µM (active)
CC(=O)[C@]12OC(=O)C3=C1[C@H](CC[C@@H]3C)[C@@H](C)C[C@H]2C=C(C)C |  | 7.96 | 1.43 µM (inactive) | 6.79 µM (inactive) | 8.85 µM (inactive) | 9.14 µM (inactive) | 9.12 µM (inactive) | 8.11 µM (inactive) | 7.26 µM (inactive) |  | 5.52 µM (inactive) | 8.09 µM (inactive) | 7.87 µM (inactive) |  | 5.68 µM (inactive) | 6.49 µM (inactive) | 8.63 µM (inactive) |  | 
COc1cccc(C2c3cc4c(cc3OC(N3CCCC3)C2C)OCO4)c1OC (stereo unspecified) | 6.49 µM (inactive) | 2.25 |  | 2.65 µM (inactive) | 4.58 µM (inactive) | 4.37 µM (inactive) | 2.32 µM (inactive) | 3.67 µM (inactive) | 3.61 µM (inactive) |  | 2.87 µM (inactive) | 1.58 µM (inactive) | 3.03 µM (inactive) | 5.74 µM (inactive) | 5.78 µM (inactive) | 0.561 µM (active) | 3.17 µM (inactive) |  | 
C1CCCCC2(CCCCCCCCC3(CCC1)SCCS3)SCCS2 | > 100 µM (inactive) | > 100 | > 100 µM (inactive) | > 100 µM (inactive) | > 100 µM (inactive) | > 100 µM (inactive) | > 100 µM (inactive) | > 100 µM (inactive) |  | > 100 µM (inactive) | > 100 µM (inactive) | > 100 µM (inactive) | > 100 µM (inactive) | > 100 µM (inactive) | > 100 µM (inactive) | > 100 µM (inactive) | > 100 µM (inactive) | > 100 µM (inactive) | 
Cc1cc(N(CCC#N)CCC#N)ccc1/C=N/NC(=O)c1cc(Cl)ccc1O | > 100 µM (inactive) | > 100 |  | > 100 µM (inactive) | > 100 µM (inactive) | > 100 µM (inactive) | > 100 µM (inactive) | > 100 µM (inactive) |  |  | > 100 µM (inactive) |  | > 100 µM (inactive) | > 100 µM (inactive) | > 100 µM (inactive) | > 100 µM (inactive) | > 100 µM (inactive) | > 100 µM (inactive) | > 100 µM (inactive)
O=C(O)C(O)C(O)C(O)C(O)c1nc2ccccc2s1 (stereo unspecified) | 15.4 µM (inactive) | 27.9 | 18.2 µM (inactive) | 21.2 µM (inactive) | 17.1 µM (inactive) | 23.2 µM (inactive) | 31 µM (inactive) | 26.9 µM (inactive) | 25.9 µM (inactive) | 20.3 µM (inactive) | 25.8 µM (inactive) | 20.1 µM (inactive) |  | 15.9 µM (inactive) | 15.3 µM (inactive) | 17.7 µM (inactive) | 16.3 µM (inactive) | 20.3 µM (inactive) | 18 µM (inactive)
Cc1c(O)c(OC2OC(CO)C(O)C(O)C2O)cc2c1CC[C@@H]1C2(C)C(=O)C[C@]2(C)[C@@H]([C@@](C)(O)C(O)/C=C/C(C)(C)O)[C@H](O)C[C@@]12C (stereo partly specified) | > 100 µM (inactive) | > 100 | > 100 µM (inactive) | > 100 µM (inactive) | > 100 µM (inactive) | > 100 µM (inactive) | > 100 µM (inactive) | > 100 µM (inactive) |  | > 100 µM (inactive) | > 100 µM (inactive) | > 100 µM (inactive) | > 100 µM (inactive) | > 100 µM (inactive) | > 100 µM (inactive) | > 100 µM (inactive) | > 100 µM (inactive) | > 100 µM (inactive) | > 100 µM (inactive)
Cc1cnc2nc(-c3sccc3C)cc(O)c2c1 | 7.06 µM (inactive) | 1.57 | 97.3 µM (inactive) | 2.4 µM (inactive) | 2.84 µM (inactive) | 3.7 µM (inactive) | 2.31 µM (inactive) | > 24 µM (inactive) |  | 23 µM (inactive) | 1.23 µM (inactive) | 2.85 µM (inactive) | 0.471 µM (active) | > 33.7 µM (inactive) | 2.59 µM (inactive) | 6.47 µM (inactive) | 2.99 µM (inactive) | > 100 µM (inactive) | 3.42 µM (inactive)
